{"source": "ChEMBL document CHEMBL1146449", "about": "“Trypanocidal flavonoids from Trixis vauthieri” (1997)", "assay_type_in_all_cases": "functional", "design_in_all_cases": "scale not given: the % may be the effect or the level left", "key": {"Trypanosoma cruzi [1]": {"test_system": "Trypanosoma cruzi", "assay": "Trypanocidal activity against Trypanosoma cruzi Y strain trypomastigotes infected in Swiss albino mouse blood assessed as reduction of parasitemia at 31 ug/mL after 24 hrs relative to control"}, "Trypanosoma cruzi [2]": {"test_system": "Trypanosoma cruzi", "assay": "Trypanocidal activity against Trypanosoma cruzi Y strain trypomastigotes infected in Swiss albino mouse blood assessed as reduction of parasitemia at 500 ug/mL after 24 hrs relative to control"}, "Trypanosoma cruzi [3]": {"test_system": "Trypanosoma cruzi", "assay": "Trypanocidal activity against Trypanosoma cruzi Y strain trypomastigotes infected in Swiss albino mouse blood assessed as reduction of parasitemia at 1000 ug/mL after 24 hrs relative to control"}}, "data": [{"smiles": "CN(C)c1ccc(C(=C2C=CC(=[N+](C)C)C=C2)c2ccc(N(C)C)cc2)cc1.[Cl-]", "note": "[GENTIAN VIOLET]", "values": [{"measurement": "Activity", "setting": "Trypanosoma cruzi [1]", "value": 50, "unit": "%"}]}, {"smiles": "COc1cc(O)c2c(c1)O[C@H](c1ccc(O)cc1)CC2=O", "note": "[SAKURANETIN]", "values": [{"measurement": "Activity", "setting": "Trypanosoma cruzi [2]", "value": 100, "unit": "%"}]}, {"smiles": "COc1cc(O)c2c(c1)OC(c1ccc(O)cc1)C(O)C2=O", "note": "(stereo not given)", "values": [{"measurement": "Activity", "setting": "Trypanosoma cruzi [3]", "value": 0, "unit": "%"}]}, {"smiles": "COc1c(OC)c(O)c2c(=O)c(OC)c(-c3ccc(O)cc3)oc2c1OC", "note": "[CALYCOPTERIN]", "values": [{"measurement": "Activity", "setting": "Trypanosoma cruzi [3]", "value": 0, "unit": "%"}]}, {"smiles": "COc1cc2oc(-c3ccc(O)cc3)c(OC)c(=O)c2c(O)c1OC", "note": "[PENDULETIN]", "values": [{"measurement": "Activity", "setting": "Trypanosoma cruzi [2]", "value": 86, "unit": "%"}]}]}
